The source of these data is patent publication US20120035175A1, “Novel salts as Anti-Inflammatory, Immunomodulatory and Anti-Proliferatory Agents” (4SC AG, priority 2010, published 2012).

For series [1], the system named is human lymphocyte cell proliferation. Description: Human lymphocyte cell proliferation (FIG. 1 legend). The series is classed as cell-based. The following applies: concentration of 100 μM.
A short description of series [2]: Dynamic vapor sorption (water uptake). Conditions: for % water uptake at 85% r.h.: about 85% r.h. The series is classed as physicochemical. The source says:
DVS (SMS): Surface Measurement Systems Ltd. DVS-1 water vapour sorption analyzer. The sample is placed on a platinum sample pan and allowed to equilibrate at a given relative humidity (r.h.), usually 50% r.h. Then, a pre-defined humidity program was started with a scanning rate of 5% r.h. change per hour. First step: from 50% r.h. to 0% r.h. (in case of a possibly hydrate as starting material 50 to 95% r.h.), second step: from 0% to 95% r.h. (in case of a possibly hydrate as starting material 95 to 0% r.h.)

Series [3] in a line: Long-term stability, 18 months storage, HPLC. The series is classed as physicochemical. The protocol: HPLC: HPLC was performed with a Dionex UltiMate® 3000 liquid chromatograph comprising a solvent Rack, a vacuum degasser, a binary pump (mikro), a static mixer (500 μl), an autosampler, a 25 μl sample loop, a 100 μl syringe, a column oven and a DAD detector (semimicro measuring cell), which was set up for UV analysis. Data analysis was done with Chromeleon® 6.80 SP3. Compounds were separated at 30° C. on a Phenomenex Onyx™ Monolithic C18 50×2 mm column. The injection volume was 2 μl and the detection wavelength was 305 nm. As mobile phase, a gradient of 0.1% formic acid in HPLC grade water/acetonitrile was used, starting at a concentration of 5% acetonitrile. The starting concentration was held for 1 minute, then the gradient was ramped linearly to 95% acetonitrile over the course of 2 min, held for 0.7 min at 95% acetonitrile, after which it was returned to 5% acetonitrile within 0.1 min and kept constant for 0.7 min to re-equilibrate the column. The mobile phase flow rate was 1.5 ml/min.
The compounds were stored for 18 months at ambient conditions (20-25° C., 30-60% relative humidity) and subsequently analysed by HPLC for purity.

In another series the target is T1, recombinant murine DHODH (Mus musculus, UniProt O35435).
T1 construct: Prof; M. Löffler, Marburg, Germany (gift)
Description: Inhibition assay of DHODH activity (murine enzyme). The series is classed as biochemical. The following applies: class symbols, key in nM. As for the experimental part: (§1) The standard assay mixture contained 50 μM decyclo ubichinone, 100 μM dihydroorotate, 60 μM 2,6-dichloroindophenol, as well as 20 mU DHODH. The volume activity of the recombinant enzyme used was 30 U/ml. Measurements were conducted in 50 mM TrisHCl (150 mM KCl, 0.1% Triton X-100, pH 8.0) at 30° C. in a final volume of 1 ml. The components were mixed, and the reaction was started by adding dihydroorotate. The course of reaction was followed by spectrophotometrically measuring the decrease in absorption at 600 nm for […].
(§2) Inhibitory studies were conducted in a standard assay with additional variable amounts of inhibitor. […] These investigations were carried out with recombinant human as well as with recombinant murine DHODH provided by Prof. M. Löffler, Marburg, Germany [M. Löffler, Chem. Biol. Interact.

The subject of series [4] is Human peripheral blood mononuclear cells (PBMC), T-cell proliferation. The series can be described thus: Proliferation assay of human T-cells (PHA-stimulated PBMC, BrdU ELISA). Format: cell-based. Conditions: PHA 20 μg/ml, 48 hours. As for the experimental part:
Human peripheral blood mononuclear cells (PBMC) were obtained from healthy volunteers and transferred to RPM11640 cell culture medium containing 10% dialyzed fetal calf serum. 80,000 cells per well were pipetted into a 96-well plate and phytohemagglutinin (PHA) was added in phosphate buffered saline to a final concentration of 20 μg/ml to stimulate T-cell proliferation. Vidofludimus was added in dimethyl sulfoxide (DMSO, final concentration: 0.1 Vol %) to final concentrations ranging from 20 nM to 50 μM. After incubation for 48 hours, cell proliferation was quantified using the “cell proliferation ELISA BrdU” (Roche) according to the manufacturer's instructions. […] (see FIG. 1).
(In general: Incorporation of labelled thymidine or its analogues reports DNA synthesis.)

The target in another series is DHODH (Rattus norvegicus, UniProt Q63707). Description: Inhibition assay of DHODH activity (column headed 'rate'). The series is classed as biochemical. The following applies: class symbols, key in nM. As for the experimental part:
as §1, §2

For another series, the target named is T2, recombinant human DHODH (Homo sapiens, UniProt Q02127).
T2 construct: Prof; M. Löffler, Marburg, Germany (gift)
Description: Inhibition assay of DHODH activity (human enzyme). The series is classed as biochemical. The following applies: recombinant human DHODH; class symbols, key in nM; read-out: human IC50-Value. As for the experimental part:
as §1, §2

A short description of series [5]: Aqueous solubility and pH of the saturated solution. Format: physicochemical. As for the experimental part: Solubility: Solubility was determined by a stepwise addition of 0.05 mL portions of solvent to a suspension of 10 mg of sample in 0.05 mL of solvent.
The aqueous solubility of the respective compound was determined by HPLC, and the pH of the resulting saturated solution was measured. For each compound tested, a suspension was prepared and equilibrated for 24 hours at 25° C. The suspension was filtered, the filtrate was diluted and analysed by HPLC.

T1 sequence (O35435 whole entry): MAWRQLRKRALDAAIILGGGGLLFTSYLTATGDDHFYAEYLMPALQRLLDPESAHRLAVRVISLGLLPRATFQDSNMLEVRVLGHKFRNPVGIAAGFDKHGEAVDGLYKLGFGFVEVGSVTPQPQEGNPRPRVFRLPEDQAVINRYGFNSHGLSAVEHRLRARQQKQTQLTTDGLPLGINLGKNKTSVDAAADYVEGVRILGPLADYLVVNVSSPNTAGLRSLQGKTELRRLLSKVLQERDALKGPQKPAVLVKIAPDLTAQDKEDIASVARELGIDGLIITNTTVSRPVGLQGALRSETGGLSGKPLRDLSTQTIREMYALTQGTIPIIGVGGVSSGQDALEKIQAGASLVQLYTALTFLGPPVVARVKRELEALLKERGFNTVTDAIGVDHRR
Sequence of DHODH (Q63707 whole entry): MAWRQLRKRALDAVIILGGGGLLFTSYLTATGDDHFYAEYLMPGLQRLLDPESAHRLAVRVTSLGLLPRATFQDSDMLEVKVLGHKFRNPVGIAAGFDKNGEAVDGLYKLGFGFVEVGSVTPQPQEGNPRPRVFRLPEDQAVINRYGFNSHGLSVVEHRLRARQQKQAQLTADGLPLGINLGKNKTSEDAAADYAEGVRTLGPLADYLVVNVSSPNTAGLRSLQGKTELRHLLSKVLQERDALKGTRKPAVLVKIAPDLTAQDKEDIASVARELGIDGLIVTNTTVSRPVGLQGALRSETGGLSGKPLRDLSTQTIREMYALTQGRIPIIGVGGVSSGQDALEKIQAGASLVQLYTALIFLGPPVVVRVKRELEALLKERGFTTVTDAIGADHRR
T2 sequence (Q02127 whole entry): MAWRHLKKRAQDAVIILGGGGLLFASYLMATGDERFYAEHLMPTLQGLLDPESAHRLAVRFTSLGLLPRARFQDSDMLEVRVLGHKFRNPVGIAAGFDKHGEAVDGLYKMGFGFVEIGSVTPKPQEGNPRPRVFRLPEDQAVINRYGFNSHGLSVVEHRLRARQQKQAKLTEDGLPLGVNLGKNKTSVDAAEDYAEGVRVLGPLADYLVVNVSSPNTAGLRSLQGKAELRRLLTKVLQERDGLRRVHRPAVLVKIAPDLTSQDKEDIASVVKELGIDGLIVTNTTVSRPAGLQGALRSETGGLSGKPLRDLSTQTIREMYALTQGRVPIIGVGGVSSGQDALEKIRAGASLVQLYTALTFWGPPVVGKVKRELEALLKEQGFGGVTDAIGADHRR

For `O=C(O)C1=C(C(=O)Nc2ccc(-c3ccccc3)cc2)CCC1` [2-(Biphenyl-4-ylcarbamoyl)-cyclopent-1-enecarboxylic acid], in series [1], the “Reduction of human lymphocyte cell proliferation” value is listed as “Reduction of human lymphocyte cell proliferation”.

Broadly, the IC50 is the concentration that inhibits the measured activity by half. Take `COc1cccc(-c2ccc(NC(=O)C3=C(C(=O)O)CCC3)c(F)c2)c1` [Compound 26, 2-((3-fluoro-3′-methoxy-[1,1′-biphenyl]-4-yl)carbamoyl)cyclopent-1-enecarboxylic acid]: in series [2], the “% water uptake at 95% r.h.” value is 0.1% and the “% water uptake at 85% r.h.” value is 0.03%. In series [3] (HPLC after 18 months storage at ambient conditions (20-25° C., 30-60% relative humidity)), the Peak area is recorded as more than 99%. For the same molecule, the “Occurrence of hydrolysis product in HPLC after 18 months storage” value in series [3] (ambient conditions (20-25° C., 30-60% relative humidity), LOD for hydrolysis product: 0.1 μg/ml) is listed as “Below LOD*”. For the same molecule, the IC50 at recombinant murine DHODH is more than 1500 nM. This molecule also displayed an IC50 in series [4] of 4100 nM.

Turning to `COc1ccccc1-c1cc(F)c(NC(=O)C2=C(C(=O)O)COC2)c(F)c1` [Compound 47, 4-((3,5-difluoro-2′-methoxy-[1,1′-biphenyl]-4-yl)carbamoyl)-2,5-dihydrofuran-3-carboxylic acid], the IC50 against DHODH is less than 800 nM; on recombinant human DHODH, less than 800 nM; at recombinant murine DHODH, more than 1500 nM.

Broadly, the Solubility is how much of the substance goes into solution per volume. Regarding `[O-][n+]1ccccc1[S-].[O-][n+]1ccccc1[S-].[Zn+2]` [Zinc salt], the Solubility in series [5] (aqueous, suspension equilibrated for 24 hours at 25° C.) worked out at 950 µg/mL. In series [5] (pH of the resulting saturated solution), this molecule registered a pH of 6.3. For the same molecule, in series [2], the “% water uptake at 95% r.h.” value was found to be 5.5% and the “% water uptake at 85% r.h.” value worked out at 4%.
